Test results published in US12599672B2, “KRAS proteolysis targeting chimeras” (PAQ Therapeutics Inc., priority 2023, dated 2026).

How the values were obtained:
Format in all cases: cell-based
KRAS G12D = target: T1, KRAS G12D (Homo sapiens, UniProt P01116, G12D); assay: KRAS G12D HiBit assay; conditions: AsPc-1-KRAS (G12D)-HiBit-KI cell, compound treatment for 24 hours; for DC50: absolute DC50
T1 construct: AsPc-1-KRAS (G12D)-HiBit-KI cell (Pharmaron); host or cells: AsPc-1-KRAS (G12D)-HiBit-KI cells (HiBiT knock-in at the endogenous KRAS locus)
T1 sequence (P01116 1-188 isoform P01116-2 G12D): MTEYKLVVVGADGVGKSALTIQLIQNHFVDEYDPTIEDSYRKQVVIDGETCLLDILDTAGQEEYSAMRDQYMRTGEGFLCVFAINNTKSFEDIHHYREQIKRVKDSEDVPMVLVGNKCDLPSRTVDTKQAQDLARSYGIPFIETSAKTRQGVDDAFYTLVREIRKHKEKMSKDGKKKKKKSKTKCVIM
Outline: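 HiBiT luminescence, detected by adding lytic buffer, substrate and LgBiT protein, served as the KRAS G12D read-out. Compounds, serially diluted 3-fold over 10 points from 0.3 mM DMSO stock, were on cells for 24 h; percent inhibition normalized to cells given 0.1% DMSO only.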

KRAS G12V = target: T2, KRAS G12V (Homo sapiens, UniProt P01116, G12V); assay: KRAS G12V HiBit assay; conditions: SW620-KRAS (G12V)-HiBit-KI cells, compound treatment for 24 hours
T2 construct: SW620-KRAS (G12V)-HiBit-KI cell (Pharmaron); host or cells: SW620-KRAS (G12V)-HiBit-KI cells (HiBiT knock-in at the endogenous KRAS locus)
T2 sequence (P01116 1-188 isoform P01116-2 G12V): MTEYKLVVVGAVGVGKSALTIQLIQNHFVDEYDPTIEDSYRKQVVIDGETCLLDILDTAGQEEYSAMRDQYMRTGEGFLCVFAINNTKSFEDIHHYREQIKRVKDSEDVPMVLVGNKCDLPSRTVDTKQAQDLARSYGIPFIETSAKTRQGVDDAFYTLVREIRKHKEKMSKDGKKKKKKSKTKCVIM
Outline: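 Luminescence from lytic Nano-Glo HiBiT detection with LgBiT read KRAS G12V levels after 24 h compound exposure. Dilutions were 10-point, 3-fold, from a 0.3 mM DMSO stock. Degradation activity was normalised to cells given 0.1% DMSO alone.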

KRAS = target: T3, KRAS (Homo sapiens, UniProt P01116); assay: KRASamp MSD assay; conditions: KE39 (KRAS amplified) cells, treated with test compounds for 24 hr, MSD readout of KRAS degradation
T3 construct: endogenous in cells; host or cells: KE39 (KRAS amplified) cells
T3 sequence (P01116 1-188 isoform P01116-2): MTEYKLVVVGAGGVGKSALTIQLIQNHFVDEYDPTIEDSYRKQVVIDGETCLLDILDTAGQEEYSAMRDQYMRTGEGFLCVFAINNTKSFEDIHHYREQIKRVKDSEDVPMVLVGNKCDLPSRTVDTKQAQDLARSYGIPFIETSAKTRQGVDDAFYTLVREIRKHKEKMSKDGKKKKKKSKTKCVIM
Outline: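 Degradation DC50 derived by curve fitting, with KRAS levels quantified by MSD electrochemiluminescence (capture/detection antibodies, recombinant WT KRAS standard). Lysates prepared from KE39 cells (KRAS amplified) exposed to test compounds for 24 hr.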

[1] = numeric bounds given in place of class symbols

SMILES | DC50 (KRAS G12D; class symbols) [nM] | DC50 (KRAS G12V; class symbols) [nM] | DC50 (KRAS) [nM] | DC50 (KRAS G12D; [1]) [nM] | DC50 (KRAS G12V; numeric bounds) [nM] | Dmax (KRAS G12D; class symbols) [%]
CCc1c(F)ccc2cc(O)cc(-c3ncc4c(N5CCOCC(C)(O)C5)nc(OC[C@@]56CCCN5[C@H](COC(=O)N5CCC(CN7CCC(c8ccc9c(c8)n(C)c(=O)n9C8CCC(=O)NC8=O)CC7)CC5)CC6)nc4c3F)c12 (stereo partly drawn) [Compound 118, ((3S,7aS)-7a-(((7-(8-Ethyl-7-fluoro-3-hydroxynaphthalen-1-yl)-8-fluoro-4-(6-hydroxy-6-methyl-1,4-oxazepan-4-yl)pyrido[4,3-d]pyrimidin-2-yl)oxy)methyl)hexahydro-1H-pyrrolizin-3-yl)methyl4-((4-(1-(2,6-dioxopiperidin-3-yl)-3-methyl-2-oxo-2,3-dihydro-1H-benzo[d]imidazol-5-yl)piperidin-1-yl)methyl) piperidine-1-carboxylate] | < 100 | < 10 | < 1 | – | – | –
CCc1c(F)ccc2cc(O)cc(-c3ncc4c(N5CCC[C@@](C)(O)C5)nc(OC[C@@]56CCCN5[C@@H](COC(=O)N5CCC(CN7CCC(c8cc9c(cc8F)n(C8CCC(=O)NC8=O)c(=O)n9C)CC7)CC5)CC6)nc4c3F)c12 (stereo partly drawn) [Compound 426, ((3R,7aS)-7a-(((7-(8-ethyl-7-fluoro-3-hydroxynaphthalen-1-yl)-8-fluoro-4-((R)-3-hydroxy-3-methylpiperidin-1-yl)pyrido[4,3-d]pyrimidin-2-yl)oxy)methyl)hexahydro-1H-pyrrolizin-3-yl)methyl 4-((4-(1-(2,6-dioxopiperidin-3-yl)-6-fluoro-3-methyl-2-oxo-2,3-dihydro-1H-benzo[d]imidazol-5-yl)piperidin-1-yl)methyl)piperidine-1-carboxylate] | < 100 | 10 to 100 | < 1 | – | – | –
CCc1c(F)ccc2cc(O)cc(-c3ncc4c(N5CCC[C@@](C)(O)C5)nc(OC[C@]56CCCN5[C@H](COC(=O)NC5CCCN(c7ccc8c(c7)n(C)c(=O)n8C7CCC(=O)NC7=O)C5)CC6)nc4c3F)c12 (stereo partly drawn) [Compound 309, ((3S,7aR)-7a-(((7-(8-ethyl-7-fluoro-3-hydroxynaphthalen-1-yl)-8-fluoro-4-((R)-3-hydroxy-3-methylpiperidin-1-yl)pyrido[4,3-d]pyrimidin-2-yl)oxy)methyl)hexahydro-1H-pyrrolizin-3-yl)methyl (1-(1-(2,6-dioxopiperidin-3-yl)-3-methyl-2-oxo-2,3-dihydro-1H-benzo[d]imidazol-5-yl)piperidin-3-yl)carbamate] | – | 10 to 100 | 1 to 10 | > 100 | – | –
CCc1c(F)ccc2cc(O)cc(-c3ncc4c(N5CCC[C@@](C)(O)C5)nc(OC[C@]56CCCN5[C@H](CN5CCC(OCCCc7ccc8c(c7)n(C)c(=O)n8C7CCC(=O)NC7=O)CC5)CC6)nc4c3F)c12 (stereo partly drawn) [Compound 444, 3-(5-(3-((1-(((3S,7aR)-7a-(((7-(8-Ethyl-7-fluoro-3-hydroxynaphthalen-1-yl)-8-fluoro-4-((R)-3-hydroxy-3-methylpiperidin-1-yl)pyrido[4,3-d]pyrimidin-2-yl)oxy)methyl)hexahydro-1H-pyrrolizin-3-yl)methyl)piperidin-4-yl)oxy)propyl)-3-methyl-2-oxo-2,3-dihydro-1H-benzo[d]imidazol-1-yl) piperidine-2,6-dione] | < 100 | – | 1 to 10 | – | > 78.5 | –
CCc1c(F)ccc2cc(O)cc(-c3ncc4c(N5CCCOCC5)nc(OC[C@@]56CCCN5[C@H](COC(=O)N5CCC(CN7CCC(c8ccc9c(c8)n(C)c(=O)n9C8CCC(=O)NC8=O)CC7)CC5)CC6)nc4c3F)c12 (stereo partly drawn) [Compound 422, ((3S,7aS)-7a-(((7-(8-ethyl-7-fluoro-3-hydroxynaphthalen-1-yl)-8-fluoro-4-(1,4-oxazepan-4-yl)pyrido[4,3-d]pyrimidin-2-yl)oxy)methyl)hexahydro-1H-pyrrolizin-3-yl)methyl 4-((4-(1-(2,6-dioxopiperidin-3-yl)-3-methyl-2-oxo-2,3-dihydro-1H-benzo[d]imidazol-5-yl)piperidin-1-yl)methyl)piperidine-1-carboxylate] | < 100 | < 10 | < 1 | – | – | –

The remaining lines, values ahead:

DC50 (KRAS G12D; class symbols) [nM] | DC50 (KRAS G12V; class symbols) [nM] | DC50 (KRAS) [nM] | DC50 (KRAS G12D; [1]) [nM] | DC50 (KRAS G12V; numeric bounds) [nM] | Dmax (KRAS G12D; class symbols) [%] | SMILES
< 100 | 10 to 100 | 1 to 10 | – | – | – | CCc1c(F)ccc2cc(O)cc(-c3ncc4c(N5CCC[C@@](C)(O)C5)nc(OC[C@@]56CCCN5[C@H](COC(=O)N5CCC(N7CCC(Cc8ccc9c(c8)n(C)c(=O)n9C8CCC(=O)NC8=O)CC7)CC5)CC6)nc4c3F)c12 (stereo partly drawn) [Compound 430, ((3S,7aS)-7a-(((7-(8-ethyl-7-fluoro-3-hydroxynaphthalen-1-yl)-8-fluoro-4-((R)-3-hydroxy-3-methylpiperidin-1-yl)pyrido[4,3-d]pyrimidin-2-yl)oxy)methyl)hexahydro-1H-pyrrolizin-3-yl)methyl 4-((1-(2,6-dioxopiperidin-3-yl)-3-methyl-2-oxo-2,3-dihydro-1H-benzo[d]imidazol-5-yl)methyl)-[1,4′-bipiperidine]-1′-carboxylate]
< 100 | < 10 | < 1 | – | – | – | C#Cc1c(F)ccc2cc(O)cc(-c3ncc4c(N5CCC[C@@](C)(O)C5)nc(OCC5(CN6CCC7(CC6)CC(N6CCC(c8cccc9c(C%10CCC(=O)NC%10=O)nn(C)c89)CC6)C7)CC5)nc4c3F)c12 (stereo partly shown) [Compound 69]
– | > 100 | ≥ 10 | > 100 | – | – | C#Cc1c(F)ccc2cc(O)cc(-c3ncc4c(N5CCC[C@@](C)(O)C5)nc(OC[C@@]56CCCN5[C@H](COC(=O)N5CCCC7(C5)CN(C5CCN(c8ccc9c(c8)n(C)c(=O)n9C8CCC(=O)NC8=O)CC5)C7)CC6)nc4c3F)c12 (stereo partly drawn) [Compound 328, ((3S,7aS)-7a-(((7-(8-ethynyl-7-fluoro-3-hydroxynaphthalen-1-yl)-8-fluoro-4-((R)-3-hydroxy-3-methylpiperidin-1-yl)pyrido[4,3-d]pyrimidin-2-yl)oxy)methyl)hexahydro-1H-pyrrolizin-3-yl)methyl 2-(1-(1-(2,6-dioxopiperidin-3-yl)-3-methyl-2-oxo-2,3-dihydro-1H-benzo[d]imidazol-5-yl)piperidin-4-yl)-2,6-diazaspiro[3.5]nonane-6-carboxylate]
– | < 10 | 1 to 10 | > 100 | – | – | CCc1c(F)ccc2cc(O)cc(-c3ncc4c(N5CCC[C@@](C)(O)C5)nc(OC[C@@]56CCCN5[C@H](COC(=O)N5CC(CN7CCC(c8ccc9c(c8)n(C)c(=O)n9C8CCC(=O)NC8=O)CC7)C5)CC6)nc4c3F)c12 (stereo partly drawn) [Compound 394, ((3S,7aS)-7a-(((7-(8-ethyl-7-fluoro-3-hydroxynaphthalen-1-yl)-8-fluoro-4-((R)-3-hydroxy-3-methylpiperidin-1-yl)pyrido[4,3-d]pyrimidin-2-yl)oxy)methyl)hexahydro-1H-pyrrolizin-3-yl)methyl 3-((4-(1-(2,6-dioxopiperidin-3-yl)-3-methyl-2-oxo-2,3-dihydro-1H-benzo[d]imidazol-5-yl)piperidin-1-yl)methyl)azetidine-1-carboxylate]
< 100 | < 10 | 1 to 10 | – | – | – | C#Cc1c(F)ccc2cc(O)cc(-c3ncc4c(N5CCC[C@@](C)(O)C5)nc(OCC5(CN6CCC(N7CCC(c8cccc9c(C%10CCC(=O)NC%10=O)nn(C)c89)CC7)CC6)CC5)nc4c3F)c12 (stereo partly shown) [Compound 77]
< 100 | < 10 | < 1 | – | – | > 50 | CCc1c(F)ccc2cc(O)cc(-c3ncc4c(N5CCC[C@@](C)(O)C5)nc(OC[C@@]56CCCN5[C@H](COC(=O)N5CCC(CN7CCC(c8cc9c(cc8F)c(C8CCC(=O)NC8=O)nn9C)CC7)CC5)CC6)nc4c3F)c12 (stereo partly drawn) [Compound 102, ((3S,7aS)-7a-(((7-(8-ethyl-7-fluoro-3-hydroxynaphthalen-1-yl)-8-fluoro-4-((R)-3-hydroxy-3-methylpiperidin-1-yl)pyrido[4,3-d]pyrimidin-2-yl)oxy)methyl)hexahydro-1H-pyrrolizin-3-yl)methyl4-((4-(3-(2,6-dioxopiperidin-3-yl)-5-fluoro-1-methyl-1H-indazol-6-yl)piperidin-1-yl)methyl) piperidine-1-carboxylate]
< 100 | < 10 | 1 to 10 | – | – | – | CCc1c(F)ccc2cc(O)cc(-c3ncc4c(N5CCC[C@@](C)(O)C5)nc(OCC56CCCN5[C@@H](COC(=O)N5CCC(CN7CCC(c8ccc9c(c8)n(C)c(=O)n9C8CCC(=O)NC8=O)CC7)CC5)CC6)nc4c3F)c12 (stereo partly drawn) [Compound 121, (cis-7a-(((7-(8-Ethyl-7-fluoro-3-hydroxynaphthalen-1-yl)-8-fluoro-4-((R)-3-hydroxy-3-methylpiperidin-1-yl)pyrido[4,3-d]pyrimidin-2-yl)oxy)methyl)hexahydro-1H-pyrrolizin-3-yl)methyl 4-((4-(1-(2,6-dioxopiperidin-3-yl)-3-methyl-2-oxo-2,3-dihydro-1H-benzo[d]imidazol-5-yl)piperidin-1-yl)methyl) piperidine-1-carboxylate]
